From US20230263808A1 (UNIVERSITY OF FLORIDA RESEARCH FOUNDATION, INCORPORATED, priority 2020, published 2023)
Entries after “also recorded” stand apart in the source; their conditions may differ.

Assays:
Assay type in all cases: cell-based
[1] = test system: mitochondrial activity, pAKT, protein synthesis, and bone; assay: Compound profiling platform, overall profile (FIG. 15); conditions: 10 uM
Procedure: N=4-6 from two different experiments. […] D) Mitochondrial activity was measured in myoblasts using high content imaging with mitotracker dye after 24 treatment. New amino acid incorporation was measured with LICOR in cell western for puromycin (SunSet assay). […] N=3, mean+SEM. […] N=4, mean+SEM, 2-way ANOVA.
To avoid such effects on myogenesis, we switched myoblasts to differentiation media, and then on day 4, added 10 μM cytarabine, a chemotherapy agent that kills dividing cells, and then adding GCs on day 6 or 7 and completing assays in day 8 (FIG. 8).
Physiologically, the effects of GCs on protein balance and Glut4 translocation vary in vivo depending upon the stressor. For example, GCs mediate atrophy in response to fasting but not exercise. […] To assess protein degradation, we measured chymotrypsin-like proteasomal activity (FIG. 2, A). The activating phosphorylation of AKT at Thr308 (pAKT) was measured using a LI-COR In-Cell Western assay (FIG. 2, B and C). The rate-limiting step in insulin-mediated glucose uptake is the translocation of the glucose transporter, Glut4, to the surface membrane, which we also measured by In-Cell Western without permeabilizing the myotubes (FIG. 2, D). Surface Sensing of Translation (SUnSET) (Schmidt et al., Nat Methods 6, 275-277, 2009) assay was used to measure protein synthesis by In-Cell Western, following treatment of myotubes with a low dose of puromycin, which incorporates into translating proteins, but at a low enough level to provide a readout for global protein synthesis (FIG. 2, E). Lastly, we developed a high-content imaging assay in myoblasts stained with a MitoTracker dye, so that individual mitochondrial networks could be visualized with adequate resolution to quantitate area, segmentation, branching, and fluorescence intensity which is a measure of mitochondrial membrane potential (ψm).
Additional studies were performed to assess activities of the various compounds identified from the previous profiling.

[2] = test system: primary human osteoblasts; assay: Osteoblast mineralization (Alizarin Red S) from mesenchymal stem cells
Procedure: A) Each dot represents the effects of a compound in the indicated assays at 10 uM. N=4-6 from two different experiments. […] C) SR11466 is efficacious at inhibiting IL-6 secretion from A549 cells. C-E). […] D) Mitochondrial activity was measured in myoblasts using high content imaging with mitotracker dye after 24 treatment. New amino acid incorporation was measured with LICOR in cell western for puromycin (SunSet assay). E) top, MMTV-luciferase reporter data. N=3, mean+SEM. Bottom, Mineralization of primary human OBs was assayed after two weeks of differentiation from MSC and two weeks of mineralization. N=4, mean+SEM, 2-way ANOVA.
As a further test for dissociation, the compounds were profiled in primary human osteoblasts for effects on osteogenesis during 4 weeks of differentiation from mesenchymal stem cells. Specifically, osteoblast mineralization was examined as follows. Human mesenchymal stem cells (MSCs) at passage 2 were maintained in growth media consisted of alpha-MEM (Life Technologies, 32561-037) supplemented with 17% FBS (Sigma-Aldrich, 12303C), 2 mM L-glutarnine (Life Technologies, 25030-081), and 100 units/mL penicillin/streptomycin (Life Technologies, 15140-122). Effect of glucocorticoid receptor modulators on osteogenic differentiation of MSCs was quantified using Alizarin Red S (Sigma-Aldrich, A5533) staining. Briefly, human MSCs were seeded in the middle 8 wells of 48-well plates at plating density of 10,000 cells per well. PBS (Life Technologies, 10010-031) was added to surrounding wells to reduce evaporation of media in the middle wells during prolonged incubation. 24 h later, growth media was replaced by osteogenic induction media (OIM) consisted of low-glucose DMEM (Life Technologies, 10567-014) supplemented with 10% FBS (Sigma-Aldrich. 12303C), 50 μg/ml L-ascorbic-2-phosphate (Sigma-Aldrich, A8960), 10 mM β-glyceroiphosphate (Sigma-Aldrich, G9891), and glucocorticoid modulators. OIM containing test compounds was replaced every week. At the end of 2 weeks, monolayers were washed with PBS (Life Technologies, 10010-031), incubated in Richard-Allan Scientific™ Neutral Buffered Formalin (10%) (Thermo Scientific, 5725) for 2 h at room temperature, washed with deionized water and stained with Alizarin Red S for 30 min at room temperature. Monolayers were then rinsed 3×with deionized water until clear, stain was then extracted with 10% (w/v) cetylpyridinium chloride (Sigma-Aldrich, C0732) in 10 mM sodium phosphate (Sigma, S5011 and S5136), pH 7.0 for 15 min at room temperature and the amount of extracted dye quantified spectroscopically at 562 nm. Spectroscopic analysis performed using a synergy™ NEO HTS Multi-Mode Microplate Reader (BioTek Instruments, Inc.).

[3] = test system: IL-1β-induced IL-6 secretion by A549 lung cells; assay: IL-1β-induced IL-6 secretion by A549 lung cells (AlphaLISA); conditions: 10 μM
Description: A) Correlation of correlation (COC) plots where each point represents the Pearson correlation coefficient, r, between a distinct gene expression or GR-peptide interaction assay with assays indicated on the x and y axes. B) The effects of all tested compounds on IL-1β-induced secretion of IL-6 (y axes) and GC-regulated phenotypes indicated on the x axes. C) The effects of all tested compounds on IL-1β-induced secretion of IL-6 (y axis) and bone mineralization (x axis). D) IL-1β-induced IL-6 production by A549 cells treated with 10 μM of the indicated compounds was compared by AlphaLISA. E-H) Myoblasts were assayed as described in FIG. 8. I) Representative myoblasts imaged during the mitochondrial potential assay. J) Plasma TNFα levels of C57BL/6 male mice treated pretreated with the indicated ligands. K) Changes in lean mass of mice in panel J were determined by whole-body NMR after an additional 18 h LPS treatment. Data shown are mean+SEM.
In order to understand whether effects on skeletal muscle could be dissociated from anti-inflammatory effects of the ligands, we profiled the compounds for suppression of IL1β-induced IL-6 secretion by A549 lung cells. Examining the correlations between assays can be used to identify dissociated assays that selectively correlate with a given phenotype, predicting discovery of dissociated ligands. […] We call this a correlation of correlations (COC) plot. […] These include recruitment of NCOA2 and NCOA3 peptides, coactivators that we and others have shown to be required for GC-dependent suppression of inflammation in different cell types (FIG. 11, A). However, for the mitochondrial assay and IL-6, there are dissociated assays shown by points that are far out from the regression line in the COC plot (FIG. 7, A). For example, interaction of CHD9 with GR predicted mitochondrial activity but not Glut4 translocation (FIG. 11, B), while interaction with the CENPR peptide selectively predicted effects on Glut4 translocation (FIG. 11, C). […] Assays that correlated with effects of the ligands on GR nuclear translocation were also highly correlated with Glut4 translocation and suppression of IL-6 secretion (FIG. 11, F). Therefore, the COC curves provide a way to identify common signaling mechanisms between different GR target tissues and signaling pathways.

## C=CCOC1CC2(C)C(CCC2(O)C#CC)C2CCc3cc(C(=O)Nc4cccnc4C)ccc3C12 (stereo not drawn) [SR11466]
[1]
  overall profile in compound profiling (anabolic effects, agonism): anti-inflammatory but muscle sparing; also recorded: anabolic effects
[2]
  effect on mineralization (bone): modest improvements on mineralization
[3]
  inhibition of IL-1β-induced IL-6 secretion (anti-inflammatory): as efficiently as Dex; also recorded: fully inhibiting IL-6 secretion; also recorded: efficacious; also recorded: inhibited IL-6 secretion as efficiently as dexamethasone

## CC#CC1(O)CCC2C3CCc4cc(C(=O)Nc5cccnc5C)ccc4C3C(OCc3ccccc3Cl)CC21C (stereo not drawn) [SR16024]
[1]
  overall profile in compound profiling (anabolic effects, agonism): more antagonistic SGRMs; also recorded: anabolic effects
[2]
  effect on mineralization (bone): bone sparing
[3]
  inhibition of IL-1β-induced IL-6 secretion (anti-inflammatory): partially inhibited; also recorded: weakly anti-inflammatory

## CC#CC1(O)CCC2C3CCc4cc(C(=O)Nc5cnccc5C)ccc4C3C(O)CC21C (stereo not drawn) [SR15421]
[1]
  overall profile in compound profiling (anabolic effects, agonism): anabolic effects
[2]
  effect on mineralization (bone): completely bone sparing
[3]
  inhibition of IL-1β-induced IL-6 secretion (anti-inflammatory): anti-inflammatory

## CC#CC1(O)CCC2C3CCc4cc(C(=O)Nc5cccnc5C)ccc4C3C(OCc3ccc(Cl)cc3)CC21C (stereo not drawn) [SR16025]
[1]
  overall profile in compound profiling (anabolic effects, agonism): more antagonistic SGRMs; also recorded: anabolic effects
[2]
  effect on mineralization (bone): more than quadrupled; also recorded: quadruple
[3]
  inhibition of IL-1β-induced IL-6 secretion (anti-inflammatory): weakly anti-inflammatory
